Reference: US20220220135A1 (BAR-ILAN UNIVERSITY, priority 2019, published 2022)
Values joined by “and” are separate entries in the source; they are usually repeats but may differ in a detail not shown here. Identical values can stand only once.

How the values were obtained:
NTPDase2 = biological target: T1, NTPDase2 (Homo sapiens, UniProt Q9Y5L3); test: Stability to hydrolysis by human NTPDase2; assay type: in vitro ADME; conditions: analogue 100 μM; activity with 100 μM ATP = 100%
T1 sequence (Q9Y5L3 1-495): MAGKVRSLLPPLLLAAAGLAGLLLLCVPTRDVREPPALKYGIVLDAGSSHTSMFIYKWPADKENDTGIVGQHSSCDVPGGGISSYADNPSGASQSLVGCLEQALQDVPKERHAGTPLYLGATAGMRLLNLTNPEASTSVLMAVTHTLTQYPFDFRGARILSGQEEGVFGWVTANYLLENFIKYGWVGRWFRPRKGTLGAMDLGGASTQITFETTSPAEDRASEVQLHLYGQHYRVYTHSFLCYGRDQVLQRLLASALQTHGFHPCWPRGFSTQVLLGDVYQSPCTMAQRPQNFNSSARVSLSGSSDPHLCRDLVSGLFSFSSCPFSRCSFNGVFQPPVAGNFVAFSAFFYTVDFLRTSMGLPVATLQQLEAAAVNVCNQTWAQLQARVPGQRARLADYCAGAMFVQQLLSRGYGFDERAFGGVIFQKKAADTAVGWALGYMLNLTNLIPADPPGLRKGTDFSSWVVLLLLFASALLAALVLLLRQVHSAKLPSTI
Method: (§1) Uridine 5′-Pα,α-phosphorodithioate analogues, 9-12, were tested for their stability to degradation by NPP1 and NTPDases. These enzymes are involved in the metabolism of extracellular nucleotides. Analogues 9-12 were not hydrolyzed by hNPP1 (Table 2). […] Analogue 10 was hydrolyzed by hNTPDase1, -2 and -3 at 30-39% the rate of ATP and was slightly hydrolyzed by human NTPDase8 at 16% the rate of ATP.
(§2) Analogues 9-12 were incubated in the presence of the indicated ectonucleotidase at a concentration of 100 μM. The activity with 100 μM ATP was set as 100%, which was 329±108, 302±34, 263±51, 195±76 nmol of Pi·min−1·mg of protein−1 for NTPDase1, -2, -3 and -8, respectively, and 34±7 nmol for NPP1. Data presented are the mean±SEM of results from two experiments.

NTPDase8 = biological target: T2, NTPDase8 (Homo sapiens, UniProt Q5MY95); test: Stability to hydrolysis by human NTPDase8; assay type: in vitro ADME; conditions: analogue 100 μM; activity with 100 μM ATP = 100%
T2 sequence (Q5MY95 1-495): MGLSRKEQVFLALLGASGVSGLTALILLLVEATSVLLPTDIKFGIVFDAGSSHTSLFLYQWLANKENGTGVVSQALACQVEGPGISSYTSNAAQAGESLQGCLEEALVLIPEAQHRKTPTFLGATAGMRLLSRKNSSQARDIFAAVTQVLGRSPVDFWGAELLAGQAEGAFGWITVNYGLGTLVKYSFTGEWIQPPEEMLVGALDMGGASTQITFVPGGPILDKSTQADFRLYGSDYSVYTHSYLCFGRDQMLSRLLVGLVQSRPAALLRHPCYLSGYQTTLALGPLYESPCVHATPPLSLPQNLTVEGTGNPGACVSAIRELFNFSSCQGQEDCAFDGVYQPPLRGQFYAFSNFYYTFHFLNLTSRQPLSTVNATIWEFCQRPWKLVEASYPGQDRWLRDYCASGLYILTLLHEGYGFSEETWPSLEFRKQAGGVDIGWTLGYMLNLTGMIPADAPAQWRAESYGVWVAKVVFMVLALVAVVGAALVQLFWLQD
Method: as §1, §2

NPP1 [1] = biological target: T3, NPP1 (Homo sapiens, UniProt P22413); test: Inhibition of human NPP1, 100 μM ATP as substrate (FIG. 9, Table 6); assay type: biochemical; conditions: ATP (100 μM) as a substrate
T3 sequence (P22413 1-925): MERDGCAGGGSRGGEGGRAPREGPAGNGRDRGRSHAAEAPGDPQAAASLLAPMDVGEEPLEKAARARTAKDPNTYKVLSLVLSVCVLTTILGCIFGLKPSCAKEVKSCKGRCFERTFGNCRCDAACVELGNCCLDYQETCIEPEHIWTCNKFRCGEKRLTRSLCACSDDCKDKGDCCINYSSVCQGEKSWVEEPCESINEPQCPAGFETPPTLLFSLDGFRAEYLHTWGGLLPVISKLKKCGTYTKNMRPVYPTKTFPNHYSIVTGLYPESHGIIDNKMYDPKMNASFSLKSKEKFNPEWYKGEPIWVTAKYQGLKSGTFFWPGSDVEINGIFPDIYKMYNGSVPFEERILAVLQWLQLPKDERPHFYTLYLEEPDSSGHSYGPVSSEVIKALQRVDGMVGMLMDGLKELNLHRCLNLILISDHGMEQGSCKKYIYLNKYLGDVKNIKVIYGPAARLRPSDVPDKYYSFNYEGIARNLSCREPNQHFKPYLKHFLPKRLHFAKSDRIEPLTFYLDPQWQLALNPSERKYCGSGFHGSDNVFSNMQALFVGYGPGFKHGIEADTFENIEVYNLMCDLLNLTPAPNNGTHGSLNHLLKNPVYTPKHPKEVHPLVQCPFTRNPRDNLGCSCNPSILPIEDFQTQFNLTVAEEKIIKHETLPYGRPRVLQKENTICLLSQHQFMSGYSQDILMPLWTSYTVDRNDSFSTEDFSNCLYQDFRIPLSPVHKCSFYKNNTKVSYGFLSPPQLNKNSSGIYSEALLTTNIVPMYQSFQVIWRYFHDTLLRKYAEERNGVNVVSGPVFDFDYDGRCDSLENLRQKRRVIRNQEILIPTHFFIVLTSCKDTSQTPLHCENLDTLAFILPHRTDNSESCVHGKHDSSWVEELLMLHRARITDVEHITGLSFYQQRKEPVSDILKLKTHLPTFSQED
Method: Each experiment was performed in triplicates;

human P2Y1R = biological target: T4, human P2Y1R (Homo sapiens, UniProt P47900); test: Calcium mobilization in 1321N1 astrocytoma cells expressing human P2Y1R; assay type: cell-based
T4 construct: expressed in transfected cells; host or cells: 1321N1 astrocytoma cells
T4 sequence (P47900 whole entry): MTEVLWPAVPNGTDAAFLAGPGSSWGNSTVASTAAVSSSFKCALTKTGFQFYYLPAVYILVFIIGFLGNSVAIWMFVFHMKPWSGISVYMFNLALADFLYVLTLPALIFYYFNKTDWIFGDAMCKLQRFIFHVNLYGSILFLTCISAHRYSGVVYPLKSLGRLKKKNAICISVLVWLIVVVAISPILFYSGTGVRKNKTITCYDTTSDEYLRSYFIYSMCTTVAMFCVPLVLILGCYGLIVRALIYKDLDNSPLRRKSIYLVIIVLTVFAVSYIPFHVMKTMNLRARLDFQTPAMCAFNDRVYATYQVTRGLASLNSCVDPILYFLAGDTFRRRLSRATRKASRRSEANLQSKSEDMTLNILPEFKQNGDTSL
Method: Given the structural resemblance of 106-109 to the natural ligands of P2Y receptors, adenine and uracil nucleotides as natural substrates, were assessed for agonist potency on the human P2Y1, P2Y2, P2Y4, and P2Y6 receptor. To evaluate NPP1 selectivity of analogs 106-109, they were tested for their ability to activate of the uridine-nucleotide sensitive human recombinant P2Y1,2,4,6-receptors. The agonist potencies of this series of nucleotide analogues on the Gq protein-coupled human P2Y1R, P2Y2R, P2Y4R, and P2Y6R was determined by assessing its ability to induce calcium mobilization in stably transfected 1321N1 astrocytoma cells (Table 8). The nucleotide analogues were found in calcium mobilization assays to activate the P2Y2R with mid-micromolar potency.

NPP1 [2] = biological target: T3, NPP1; test: Inhibition of human NPP1, 100 μM p-Nph-5′-TMP as substrate (Tables 5, 6)

O=c1ccn([C@@H]2O[C@H](COP(=S)(S)OP(=O)(O)OP(=O)(O)O)[C@@H](O)[C@H]2O)c(=O)[nH]1 (stereo partly shown) [Analogue 10]
Relative activity (%) ± SEM of ATP hydrolysis, NTPDase2 (NTPDase2): 32.0 ± 3.3%
Relative activity (%) ± SEM of ATP hydrolysis, NTPDase8 (NTPDase8): 16% and 16.5 ± 2.8%

Nc1ncnc2c1ncn2COCCOP(=S)(S)OP(=O)(O)O (stereo not shown) [compound 106]
inhibition at 10 µM (NPP1 [1]; 10 μM, n = 3, read-out: % inhibition ± SEM at 10 μM, human NPP1): 68 ± 1%
Ki (NPP1 [1]; read-out: Ki (μM ± SD), human NPP1 (converted)): 0.305 µM
% activation at 10 μM, P2Y1 (human P2Y1R): 2 ± 2%
Ki (NPP1 [2]): 1810 nM
inhibition at 10 µM (NPP1 [2]; read-out: % inhibition ± SEM at 10 μM, human NPP1): 67 ± 1%
